Legend:
[1] = tested on: Tyrosine-protein kinase ABL1 (Homo sapiens), P00519 [T315I]; settings: Compound concentration 100.0 nM
[2] = target: 5'-AMP-activated protein kinase catalytic subunit alpha-1 (Homo sapiens) (UniProt Q13131); settings: Compound concentration 100.0 nM
[3] = target: Ankyrin repeat and protein kinase domain-containing protein 1 (Homo sapiens) (UniProt Q8NFD2); settings: Compound concentration 100.0 nM
[4] = target: Cyclin-dependent kinase 11B (Homo sapiens) (UniProt P21127); settings: Compound concentration 100.0 nM
[5] = target: Cyclin-dependent kinase 13 (Homo sapiens) (UniProt Q14004); settings: Compound concentration 100.0 nM
[6] = target: Cyclin-dependent kinase 19 (Homo sapiens) (UniProt Q9BWU1); settings: Compound concentration 100.0 nM
[7] = target: Macrophage colony-stimulating factor 1 receptor (Homo sapiens) (UniProt P07333); settings: Compound concentration 100.0 nM
[8] = target: Epithelial discoidin domain-containing receptor 1 (Homo sapiens) (UniProt Q08345); settings: Compound concentration 100.0 nM
[9] = target: Ephrin type-A receptor 2 (Homo sapiens) (UniProt P29317); settings: Compound concentration 100.0 nM
[10] = target: Receptor tyrosine-protein kinase erbB-4 (Homo sapiens) (UniProt Q15303); settings: Compound concentration 100.0 nM
[11] = target: Mitogen-activated protein kinase 1 (Homo sapiens) (UniProt P28482); settings: Compound concentration 100.0 nM
[12] = target: Mitogen-activated protein kinase 6 (Homo sapiens) (UniProt Q16659); settings: Compound concentration 100.0 nM
[13] = target: Mitogen-activated protein kinase 4 (Homo sapiens) (UniProt P31152); settings: Compound concentration 100.0 nM
[14] = target: Serine/threonine-protein kinase/endoribonuclease IRE1 (Homo sapiens) (UniProt O75460); settings: Compound concentration 100.0 nM
[15] = tested on: Receptor-type tyrosine-protein kinase FLT3 (Homo sapiens), P36888 [D835V]; settings: Compound concentration 100.0 nM
[16] = tested on: Receptor-type tyrosine-protein kinase FLT3 (Homo sapiens), P36888 [K663Q]; settings: Compound concentration 100.0 nM
[17] = target: Tyrosine-protein kinase FRK (Homo sapiens) (UniProt P42685); settings: Compound concentration 100.0 nM
[18] = tested on: eIF-2-alpha kinase GCN2 (Homo sapiens), Q9P2K8 [S808G]; settings: Compound concentration 100.0 nM
[19] = target: Beta-adrenergic receptor kinase 1 (Homo sapiens) (UniProt P25098); settings: Compound concentration 100.0 nM
[20] = target: Homeodomain-interacting protein kinase 2 (Homo sapiens) (UniProt Q9H2X6); settings: Compound concentration 100.0 nM
[21] = target: Insulin receptor (Homo sapiens) (UniProt P06213); settings: Compound concentration 100.0 nM
[22] = target: Insulin receptor-related protein (Homo sapiens) (UniProt P14616); settings: Compound concentration 100.0 nM
[23] = target: Interleukin-1 receptor-associated kinase 1 (Homo sapiens) (UniProt P51617); settings: Compound concentration 100.0 nM
[24] = target: Mitogen-activated protein kinase kinase kinase 2 (Homo sapiens) (UniProt Q9Y2U5); settings: Compound concentration 100.0 nM
[25] = target: MAP/microtubule affinity-regulating kinase 4 (Homo sapiens) (UniProt Q96L34); settings: Compound concentration 100.0 nM
[26] = target: Dual specificity mitogen-activated protein kinase kinase 4 (Homo sapiens) (UniProt P45985); settings: Compound concentration 100.0 nM
[27] = target: Serine/threonine-protein kinase 24 (Homo sapiens) (UniProt Q9Y6E0); settings: Compound concentration 100.0 nM
[28] = target: Serine/threonine-protein kinase 38 (Homo sapiens) (UniProt Q15208); settings: Compound concentration 100.0 nM
[29] = target: Serine/threonine-protein kinase Nek2 (Homo sapiens) (UniProt P51955); settings: Compound concentration 100.0 nM
[30] = target: Serine/threonine-protein kinase Nek3 (Homo sapiens) (UniProt P51956); settings: Compound concentration 100.0 nM
[31] = target: Mitogen-activated protein kinase 11 (Homo sapiens) (UniProt Q15759); settings: Compound concentration 100.0 nM
[32] = target: Serine/threonine-protein kinase PAK 5 (Homo sapiens) (UniProt Q9P286); settings: Compound concentration 100.0 nM
[33] = tested on: Phosphatidylinositol 4,5-bisphosphate 3-kinase catalytic subunit alpha isoform (Homo sapiens), P42336 [E542K]; settings: Compound concentration 100.0 nM
[34] = target: Phosphatidylinositol 4,5-bisphosphate 3-kinase catalytic subunit delta isoform (Homo sapiens) (UniProt O00329); settings: Compound concentration 100.0 nM
[35] = target: Phosphatidylinositol 5-phosphate 4-kinase type-2 gamma (Homo sapiens) (UniProt Q8TBX8); settings: Compound concentration 100.0 nM
[36] = target: Membrane-associated tyrosine- and threonine-specific cdc2-inhibitory kinase (Homo sapiens) (UniProt Q99640); settings: Compound concentration 100.0 nM
[37] = target: Serine/threonine-protein kinase D1 (Homo sapiens) (UniProt Q15139); settings: Compound concentration 100.0 nM
[38] = target: Serine/threonine-protein kinase RIO2 (Homo sapiens) (UniProt Q9BVS4); settings: Compound concentration 100.0 nM
[39] = target: Uncharacterized serine/threonine-protein kinase SBK3 (Homo sapiens) (UniProt P0C264); settings: Compound concentration 100.0 nM
[40] = target: Serine/threonine-protein kinase SIK2 (Homo sapiens) (UniProt Q9H0K1); settings: Compound concentration 100.0 nM
[41] = target: Serine/threonine-protein kinase 35 (Homo sapiens) (UniProt Q8TDR2); settings: Compound concentration 100.0 nM
[42] = target: Tyrosine-protein kinase receptor TYRO3 (Homo sapiens) (UniProt Q06418); settings: Compound concentration 100.0 nM
[43] = target: Serine/threonine-protein kinase WNK1 (Homo sapiens) (UniProt Q9H4A3); settings: Compound concentration 100.0 nM
[44] = target: Mitogen-activated protein kinase kinase kinase 20 (Homo sapiens) (UniProt Q9NYL2); settings: Compound concentration 100.0 nM
[45] = target: Sodium-dependent dopamine transporter (Homo sapiens) (UniProt Q01959); settings: Compound concentration 10.0 uM

Membrane-associated tyrosine- and threonine-specific cdc2-inhibitory kinase (Homo sapiens), sequence (Q99640 whole entry): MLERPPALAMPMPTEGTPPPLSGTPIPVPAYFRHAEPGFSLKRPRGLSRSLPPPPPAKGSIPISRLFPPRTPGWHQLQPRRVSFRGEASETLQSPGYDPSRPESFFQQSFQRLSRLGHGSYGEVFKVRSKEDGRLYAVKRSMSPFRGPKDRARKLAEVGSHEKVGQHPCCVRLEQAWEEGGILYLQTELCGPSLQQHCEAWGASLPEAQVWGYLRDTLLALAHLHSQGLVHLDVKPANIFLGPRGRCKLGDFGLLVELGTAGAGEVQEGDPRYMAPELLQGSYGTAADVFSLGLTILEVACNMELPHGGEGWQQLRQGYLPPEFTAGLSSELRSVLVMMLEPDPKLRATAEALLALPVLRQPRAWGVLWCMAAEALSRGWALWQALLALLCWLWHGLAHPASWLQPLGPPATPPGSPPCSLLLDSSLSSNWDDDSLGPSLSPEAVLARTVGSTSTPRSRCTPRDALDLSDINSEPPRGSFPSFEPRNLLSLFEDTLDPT
Dual specificity mitogen-activated protein kinase kinase 4 (Homo sapiens), sequence (P45985 whole entry): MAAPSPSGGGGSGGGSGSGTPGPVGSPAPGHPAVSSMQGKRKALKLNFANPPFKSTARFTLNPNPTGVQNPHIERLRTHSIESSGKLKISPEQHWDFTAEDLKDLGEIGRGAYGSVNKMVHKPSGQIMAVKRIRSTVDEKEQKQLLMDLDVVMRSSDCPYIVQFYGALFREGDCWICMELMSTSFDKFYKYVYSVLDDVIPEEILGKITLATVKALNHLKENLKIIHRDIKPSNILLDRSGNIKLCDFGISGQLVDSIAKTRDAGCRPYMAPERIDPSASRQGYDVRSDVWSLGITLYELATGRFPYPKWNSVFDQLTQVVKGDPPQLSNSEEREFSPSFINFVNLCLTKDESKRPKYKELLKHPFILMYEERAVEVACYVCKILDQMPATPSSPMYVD
Serine/threonine-protein kinase Nek3 (Homo sapiens), sequence (P51956 whole entry): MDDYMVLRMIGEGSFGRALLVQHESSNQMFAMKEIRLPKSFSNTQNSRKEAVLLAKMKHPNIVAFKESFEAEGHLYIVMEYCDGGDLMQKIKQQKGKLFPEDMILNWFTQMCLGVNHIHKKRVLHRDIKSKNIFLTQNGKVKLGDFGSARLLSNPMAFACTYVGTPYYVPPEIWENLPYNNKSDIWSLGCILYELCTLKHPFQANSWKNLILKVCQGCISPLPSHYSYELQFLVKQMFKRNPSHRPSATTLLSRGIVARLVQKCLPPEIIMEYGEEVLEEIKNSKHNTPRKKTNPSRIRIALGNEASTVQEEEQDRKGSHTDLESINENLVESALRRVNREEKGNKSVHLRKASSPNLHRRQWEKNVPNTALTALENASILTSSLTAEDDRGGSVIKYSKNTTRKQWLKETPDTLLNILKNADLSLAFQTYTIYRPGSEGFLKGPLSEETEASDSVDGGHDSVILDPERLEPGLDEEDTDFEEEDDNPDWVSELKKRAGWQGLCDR
5'-AMP-activated protein kinase catalytic subunit alpha-1 (Homo sapiens), sequence (Q13131 whole entry, looked up, the tested form may be a part): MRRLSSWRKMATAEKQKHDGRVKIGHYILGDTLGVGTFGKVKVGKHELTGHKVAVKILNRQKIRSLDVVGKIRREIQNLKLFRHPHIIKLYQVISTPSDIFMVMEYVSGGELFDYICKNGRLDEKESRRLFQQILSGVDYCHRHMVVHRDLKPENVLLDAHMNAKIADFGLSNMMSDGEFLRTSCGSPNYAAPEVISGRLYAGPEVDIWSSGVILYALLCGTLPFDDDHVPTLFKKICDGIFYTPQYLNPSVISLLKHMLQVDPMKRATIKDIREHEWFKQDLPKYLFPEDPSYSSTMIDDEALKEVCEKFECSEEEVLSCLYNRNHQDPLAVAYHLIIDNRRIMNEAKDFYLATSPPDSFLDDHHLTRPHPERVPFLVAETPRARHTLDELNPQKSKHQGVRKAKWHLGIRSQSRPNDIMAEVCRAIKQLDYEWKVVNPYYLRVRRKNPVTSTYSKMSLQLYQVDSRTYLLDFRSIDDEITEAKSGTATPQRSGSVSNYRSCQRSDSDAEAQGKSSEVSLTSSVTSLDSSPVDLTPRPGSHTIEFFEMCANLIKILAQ
Phosphatidylinositol 4,5-bisphosphate 3-kinase catalytic subunit delta isoform (Homo sapiens), sequence (O00329 whole entry, canonical isoform): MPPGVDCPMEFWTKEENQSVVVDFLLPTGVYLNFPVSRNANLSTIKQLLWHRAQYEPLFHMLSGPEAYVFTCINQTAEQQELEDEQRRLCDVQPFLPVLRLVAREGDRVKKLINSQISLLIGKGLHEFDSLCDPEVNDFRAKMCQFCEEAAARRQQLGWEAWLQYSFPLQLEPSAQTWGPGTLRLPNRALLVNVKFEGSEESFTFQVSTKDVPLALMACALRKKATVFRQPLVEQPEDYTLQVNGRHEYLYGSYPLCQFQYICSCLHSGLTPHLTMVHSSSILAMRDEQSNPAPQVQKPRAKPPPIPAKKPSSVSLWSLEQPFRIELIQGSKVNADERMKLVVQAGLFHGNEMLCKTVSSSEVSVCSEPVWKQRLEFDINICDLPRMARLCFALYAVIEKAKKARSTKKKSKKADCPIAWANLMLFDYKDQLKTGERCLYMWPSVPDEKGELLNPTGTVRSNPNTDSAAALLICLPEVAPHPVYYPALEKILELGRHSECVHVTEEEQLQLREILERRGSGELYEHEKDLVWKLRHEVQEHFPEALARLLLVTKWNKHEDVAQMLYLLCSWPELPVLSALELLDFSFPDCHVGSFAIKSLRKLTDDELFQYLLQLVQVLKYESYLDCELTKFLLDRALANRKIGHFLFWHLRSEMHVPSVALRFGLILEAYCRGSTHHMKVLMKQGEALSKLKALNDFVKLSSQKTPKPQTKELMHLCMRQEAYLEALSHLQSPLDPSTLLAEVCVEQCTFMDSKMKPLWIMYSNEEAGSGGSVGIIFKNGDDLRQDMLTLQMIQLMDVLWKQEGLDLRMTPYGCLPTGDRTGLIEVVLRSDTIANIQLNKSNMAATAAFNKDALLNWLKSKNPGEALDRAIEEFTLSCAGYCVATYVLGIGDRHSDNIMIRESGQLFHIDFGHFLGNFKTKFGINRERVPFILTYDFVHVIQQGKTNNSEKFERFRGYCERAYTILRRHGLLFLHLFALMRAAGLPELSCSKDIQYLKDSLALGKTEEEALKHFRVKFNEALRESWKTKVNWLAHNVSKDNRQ
Serine/threonine-protein kinase PAK 5 (Homo sapiens), sequence (Q9P286 whole entry, looked up, canonical isoform): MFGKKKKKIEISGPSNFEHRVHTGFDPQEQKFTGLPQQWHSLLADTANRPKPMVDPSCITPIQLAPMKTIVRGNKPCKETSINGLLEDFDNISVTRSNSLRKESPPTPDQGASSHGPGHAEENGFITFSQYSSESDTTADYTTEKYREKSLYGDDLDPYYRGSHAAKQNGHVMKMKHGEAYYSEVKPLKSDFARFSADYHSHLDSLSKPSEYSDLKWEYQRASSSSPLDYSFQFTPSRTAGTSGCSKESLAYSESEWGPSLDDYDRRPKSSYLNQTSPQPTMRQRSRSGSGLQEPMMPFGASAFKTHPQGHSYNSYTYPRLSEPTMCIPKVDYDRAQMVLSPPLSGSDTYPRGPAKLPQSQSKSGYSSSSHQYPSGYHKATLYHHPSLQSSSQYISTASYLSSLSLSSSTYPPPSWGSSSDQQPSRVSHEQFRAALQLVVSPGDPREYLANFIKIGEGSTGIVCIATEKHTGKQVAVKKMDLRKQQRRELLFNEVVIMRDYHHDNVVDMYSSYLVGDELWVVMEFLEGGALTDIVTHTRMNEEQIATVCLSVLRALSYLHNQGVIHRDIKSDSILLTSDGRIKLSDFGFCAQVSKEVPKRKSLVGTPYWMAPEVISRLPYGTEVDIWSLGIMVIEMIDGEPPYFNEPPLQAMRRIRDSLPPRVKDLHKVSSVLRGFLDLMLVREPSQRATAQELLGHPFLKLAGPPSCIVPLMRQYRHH
Phosphatidylinositol 4,5-bisphosphate 3-kinase catalytic subunit alpha isoform (Homo sapiens), P42336 [E542K], sequence (P42336 whole entry E542K, canonical isoform): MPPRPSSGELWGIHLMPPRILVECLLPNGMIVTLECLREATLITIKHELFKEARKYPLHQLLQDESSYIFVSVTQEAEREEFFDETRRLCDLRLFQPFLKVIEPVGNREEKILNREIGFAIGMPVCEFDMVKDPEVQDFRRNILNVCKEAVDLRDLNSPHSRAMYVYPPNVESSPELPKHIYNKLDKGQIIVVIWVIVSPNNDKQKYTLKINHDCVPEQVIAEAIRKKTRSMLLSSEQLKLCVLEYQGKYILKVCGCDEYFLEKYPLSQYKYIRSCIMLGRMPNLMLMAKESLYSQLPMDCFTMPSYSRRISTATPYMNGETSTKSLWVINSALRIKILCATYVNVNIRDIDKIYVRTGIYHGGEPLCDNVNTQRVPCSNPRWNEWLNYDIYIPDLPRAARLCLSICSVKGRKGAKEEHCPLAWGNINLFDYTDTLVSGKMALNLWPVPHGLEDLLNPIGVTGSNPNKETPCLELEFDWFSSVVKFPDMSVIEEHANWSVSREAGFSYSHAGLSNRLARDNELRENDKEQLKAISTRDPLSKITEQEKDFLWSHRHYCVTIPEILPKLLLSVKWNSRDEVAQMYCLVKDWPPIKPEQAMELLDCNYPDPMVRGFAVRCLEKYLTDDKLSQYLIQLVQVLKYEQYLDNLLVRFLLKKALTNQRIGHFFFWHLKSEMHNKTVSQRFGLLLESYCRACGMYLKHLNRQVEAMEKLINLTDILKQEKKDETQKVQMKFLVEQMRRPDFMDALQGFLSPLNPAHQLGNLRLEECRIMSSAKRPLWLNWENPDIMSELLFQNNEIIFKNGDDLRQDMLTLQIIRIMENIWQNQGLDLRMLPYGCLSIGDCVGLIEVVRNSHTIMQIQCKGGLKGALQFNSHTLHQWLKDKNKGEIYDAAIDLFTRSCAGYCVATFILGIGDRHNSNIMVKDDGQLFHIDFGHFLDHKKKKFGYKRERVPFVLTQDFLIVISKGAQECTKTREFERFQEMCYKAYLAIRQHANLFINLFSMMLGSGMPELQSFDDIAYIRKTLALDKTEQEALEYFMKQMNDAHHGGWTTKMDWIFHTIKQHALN

`Cc1ccc(-c2cnc([C@@]3(O)CC[C@H](C(=O)O)C(C)(C)C3)s2)cc1Nc1cccc(C(F)(F)F)n1` [MRL-SYKi-NC] was tested, and the residual activity [1] was 88%, the residual activity [2] was 77.6% and the residual activity [3] was 93.5%. The residual activity [4] was 95.4%, the residual activity [5] was 45.7% and the residual activity [6] was 95.3%. It also gave a residual activity [7] of 84%, a residual activity [8] of 100% and a residual activity [9] of 100%. The residual activity [10] was 81.2%, the residual activity [11] was 100% and the residual activity [12] was 100%. For the same compound, the residual activity [13] was 100%, the residual activity [14] was 68.6% and the residual activity [15] was 100%. For the same compound, the residual activity [16] was 100%, the residual activity [17] was 100% and the residual activity [18] was 100%. For the same compound, the residual activity [19] was 100%, the residual activity [20] was 73.5% and the residual activity [21] was 78.7%. The residual activity [22] was 86.1%, the residual activity [23] was 49.8% and the residual activity [24] was 100%. The residual activity [25] was 71.5%, the residual activity [26] was 81.2% and the residual activity [27] was 100%. For the same compound, the residual activity [28] was 87.9%, the residual activity [29] was 100% and the residual activity [30] was 82.8%. The residual activity [31] was 98.7%, the residual activity [32] was 96% and the residual activity [33] was 87.4%. It also gave a residual activity [34] of 98.8%, a residual activity [35] of 97.5% and a residual activity [36] of 93.1%. It also gave a residual activity [37] of 90.1%, a residual activity [38] of 100% and a residual activity [39] of 100%. It also gave a residual activity [40] of 88.9%, a residual activity [41] of 97.3% and a residual activity [42] of 100%. It also gave a residual activity [43] of 100%, a residual activity [44] of 96.9% and an inhibition [45] of 71%.
For `Cc1cc(Nc2nccc(C)n2)cc(-c2cnc([C@@]3(O)CC[C@H](C(=O)O)C(C)(C)C3)s2)c1` [MRL-SYKi], the residual activity [1] was 100%, the residual activity [2] was 100% and the residual activity [3] was 100%. The residual activity [4] was 93.3%, the residual activity [5] was 89.5% and the residual activity [6] was 85%. It also gave a residual activity [7] of 85.6%, a residual activity [8] of 84.5% and a residual activity [9] of 100%. The residual activity [10] was 81.9%, the residual activity [11] was 100% and the residual activity [12] was 97.9%. The residual activity [13] was 100%, the residual activity [14] was 90.2% and the residual activity [15] was 75.6%. The residual activity [16] was 82.1%, the residual activity [17] was 100% and the residual activity [18] was 56.2%. It also gave a residual activity [19] of 97.5%, a residual activity [20] of 83.5% and a residual activity [21] of 100%. For the same compound, the residual activity [22] was 100%, the residual activity [23] was 80.7% and the residual activity [24] was 100%. For the same compound, the residual activity [25] was 100%, the residual activity [26] was 100% and the residual activity [27] was 83.5%. The residual activity [28] was 80.6%, the residual activity [29] was 100% and the residual activity [30] was 50.7%. The residual activity [31] was 100%, the residual activity [32] was 100% and the residual activity [33] was 66.5%. For the same compound, the residual activity [34] was 100%, the residual activity [35] was 91.9% and the residual activity [36] was 100%. For the same compound, the residual activity [37] was 100%, the residual activity [38] was 83.9% and the residual activity [39] was 100%. The residual activity [40] was 95.7%, the residual activity [41] was 100% and the residual activity [42] was 60.2%. For the same compound, the residual activity [43] was 100%, the residual activity [44] was 92.5% and the inhibition [45] was 39.3%.
